Assay results: patent publication US5744121A (priority 1996, dated 1998)
Like-named read-outs stand apart in the source and are kept apart here.

Columns and labels:
other receptors = conditions: cited from earlier work
5-HT1A receptor [1] = conditions: cited from earlier work
[2] = Regional brain distribution in rats after iv injection; type: in vivo, Male Sprague-Dawley rats; conditions: rat; for tissue uptake at 0.5 h: 30 min; for tissue uptake at 2 h: 120 min
[3] = Partition coefficient (octanol/phosphate); type: physicochemical; conditions: octanol/0.1M phosphate, pH 7.0; read-out: P.C (partition coefficient) (converted)
Excerpt: P.C = 1800 (octanol/0.1M phosphate, pH 7.0)

[4] = Biodistribution in rats after iv injection; type: in vivo, Male Sprague-Dawley rats; conditions: average of 3 rats ± SD
Protocol: Male Sprague-Dawley rats (225-300 g), allowed free access to food and water, were used for an in vivo biodistribution study. While the rats were under ether anesthesia, 0.2 mL of a saline solution containing [^123 I]1a and 1b (8-10 μCi) was injected directly into the femoral vein, and rats were sacrificed at various time points postinjection by cardiac excision under ether anesthesia. The organs of interest were removed and weighed and the radioactivity was counted with a Packard […] automatic counter (Model 5000). The percentage dose per organ was calculated by a comparison of the tissue counts to suitably diluted aliquots of the injected material.

[5] = Stability of the radiolabelled product on storage; type: physicochemical; conditions: -20° C., at least four weeks, HPLC; 40320 min
α1 receptor = conditions: relative to 5-HT1A; cited from earlier work
5-HT1A receptor [6] = assay: Blocking studies: regional brain uptake ratios in rats; type: in vivo; conditions: 30 min post iv injection of tracer
Protocol: In order to further characterize the in vivo brain uptake of 1a in rats, blocking studies were carried out to determine changes of the ratios of regional brain uptake. […] Ratios for each region were calculated based on the % dose/gram of each region divided by the same in CB. […] (HP: hippocampus; CB: cerebellum; HY: hypothalamus; CX: cortex; ST: striatum).

5-HT1A receptor [7] = assay: Regional brain distribution in rats after iv injection; type: in vivo, Male Sprague-Dawley rats; conditions: ^123 I labeled, iv
[8] = molecular target: T1, 5-HT1A receptor (rat hippocampal homogenates) (Rattus norvegicus, UniProt P19327); assay: Inhibition of [^125 I]-8-OH-PIPAT binding to rat hippocampal homogenates; conditions: ligand [^125 I]-8-OH-PIPAT
T1 construct: in rat hippocampal membrane preparations; from tissue; host or cells: rat hippocampus (membrane preparations / tissue homogenates)
T1 sequence (P19327 1-422): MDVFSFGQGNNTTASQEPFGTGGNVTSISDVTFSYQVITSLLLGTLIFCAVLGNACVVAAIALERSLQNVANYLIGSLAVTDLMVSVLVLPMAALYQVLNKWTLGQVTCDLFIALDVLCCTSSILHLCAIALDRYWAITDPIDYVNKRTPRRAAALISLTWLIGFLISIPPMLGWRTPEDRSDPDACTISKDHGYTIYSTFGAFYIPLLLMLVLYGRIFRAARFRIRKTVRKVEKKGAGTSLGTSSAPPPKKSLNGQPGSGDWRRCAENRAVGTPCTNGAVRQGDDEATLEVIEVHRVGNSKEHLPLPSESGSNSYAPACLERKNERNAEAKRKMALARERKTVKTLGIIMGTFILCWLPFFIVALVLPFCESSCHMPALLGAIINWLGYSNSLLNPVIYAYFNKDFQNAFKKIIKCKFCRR
Excerpt: The 5-HT1A binding affinity of p-, m-, o- MPPI, p-fluoro- and p-nitro-MPP derivatives (1a-f) in rat hippocampal membrane preparations with [^123 ]

[9] = tested on: serotonin (5-HT1A) receptor; assay: Selectivity for serotonin 5-HT1A receptor; type: binding
[10] = molecular target: T1, 5-HT1A receptor (rat hippocampal homogenates); assay: Inhibition of [^125 I]-p-MPP binding to rat hippocampal homogenates; conditions: ligand [^125 I]-p-MPP, rat hippocampal homogenates; read-out: Ki
[11] = cerebellum, iv, rats (Table III), read-out: Regional distribution, cerebellum
[12] = cortex, iv, rats (Table III), read-out: Regional distribution, cortex
[13] = hippocampus, iv, rats (Table III), read-out: Regional distribution, hippocampus
[14] = hypothalamus, iv, rats (Table III), read-out: Regional distribution, hypothalamus
[15] = striatum, iv, rats (Table III), read-out: Regional distribution, striatum

COc1ccccc1N1CCN(CCCCNC(=O)C23CC4CC(CC(C4)C2)C3)CC1 [4-[4-(1-adamantanecarboxamido)-butyl] 1-(2-methoxyphenyl)piperazine]
binding affinity to other receptors (other receptors): devoid of binding affinity to other receptors | Kd (5-HT1A receptor [1]; 5-HT1A receptor): 0.4 nM

COc1ccccc1N1CCN(CCN(C(=O)c2ccc([123I])cc2)c2ccccn2)CC1 [[^123 I] 1a]
tissue uptake at 2 min [2, 11]: 0.64 ± 0.08 %ID/g | tissue uptake at 0.5 h [2, 11]: 0.07 ± 0.006 %ID/g | tissue uptake at 1 h ([2]; cerebellum, 60 min, iv, rats (Table III), read-out: Regional distribution, cerebellum): 0.04 ± 0.001 %ID/g | tissue uptake at 2 h [2, 11]: 0.024 ± 0.0002 %ID/g | tissue uptake at 2 min [2, 12]: 0.91 ± 0.06 %ID/g | tissue uptake at 0.5 h [2, 12]: 0.11 ± 0.01 %ID/g | tissue uptake at 1 h ([2]; cortex, 60 min, iv, rats (Table III), read-out: Regional distribution, cortex): 0.061 ± 0.002 %ID/g | tissue uptake at 2 h [2, 12]: 0.026 ± 0.002 %ID/g | tissue uptake at 2 min [2, 13]: 0.87 ± 0.18 %ID/g | tissue uptake at 0.5 h [2, 13]: 0.23 ± 0.007 %ID/g | tissue uptake at 1 h ([2]; hippocampus, 60 min, iv, rats (Table III), read-out: Regional distribution, hippocampus): 0.127 ± 0.009 %ID/g | tissue uptake at 2 h [2, 13]: 0.04 ± 0.003 %ID/g | tissue uptake at 2 min [2, 14]: 0.67 ± 0.1 %ID/g | tissue uptake at 0.5 h [2, 14]: 0.14 ± 0.04 %ID/g | tissue uptake at 1 h ([2]; hypothalamus, 60 min, iv, rats (Table III), read-out: Regional distribution, hypothalamus): 0.051 ± 0.004 %ID/g | tissue uptake at 2 h [2, 14]: 0.03 ± 0.0002 %ID/g | tissue uptake at 2 min [2, 15]: 0.76 ± 0.12 %ID/g | tissue uptake at 0.5 h [2, 15]: 0.09 ± 0.0001 %ID/g | tissue uptake at 1 h ([2]; striatum, 60 min, iv, rats (Table III), read-out: Regional distribution, striatum): 0.046 ± 0.004 %ID/g | tissue uptake at 2 h [2, 15]: 0.021 ± 0.0007 %ID/g | logD [3]: 3.26 | Blood uptake ([4]; 2 min): 4.49 ± 0.55 % dose/organ | Brain uptake ([4]; 2 min): 1.22 ± 0.22 % dose/organ | Heart uptake ([4]; 2 min): 0.91 ± 0.09 % dose/organ | Kidney uptake ([4]; 2 min): 5.20 ± 0.44 % dose/organ | Liver uptake ([4]; 2 min): 14.2 ± 3.1 % dose/organ | Lung uptake ([4]; 2 min): 2.39 ± 0.10 % dose/organ | Muscle uptake ([4]; 2 min): 11.29 ± 4.15 % dose/organ | Skin uptake ([4]; 2 min): 8.34 ± 1.22 % dose/organ | Spleen uptake ([4]; 2 min): 0.37 ± 0.13 % dose/organ | Thyroid uptake ([4]; 2 min): 0.09 ± 0.02 % dose/organ | Blood uptake ([4]; 30 min): 4.04 ± 1.24 % dose/organ | Brain uptake ([4]; 30 min): 0.22 ± 0.01 % dose/organ | Heart uptake ([4]; 30 min): 0.18 ± 0.04 % dose/organ | Kidney uptake ([4]; 30 min): 1.74 ± 0.49 % dose/organ | Liver uptake ([4]; 30 min): 8.71 ± 0.20 % dose/organ | Lung uptake ([4]; 30 min): 0.48 ± 0.05 % dose/organ | Muscle uptake ([4]; 30 min): 7.58 ± 2.48 % dose/organ | Skin uptake ([4]; 30 min): 8.24 ± 1.60 % dose/organ | Spleen uptake ([4]; 30 min): 0.14 ± 0.02 % dose/organ | Thyroid uptake ([4]; 30 min): 0.03 ± 0.02 % dose/organ | Blood uptake ([4]; 60 min): 2.73 ± 0.09 % dose/organ | Brain uptake ([4]; 60 min): 0.12 ± 0.005 % dose/organ | Heart uptake ([4]; 60 min): 0.13 ± 0.02 % dose/organ | Kidney uptake ([4]; 60 min): 1.06 ± 0.23 % dose/organ | Liver uptake ([4]; 60 min): 7.53 ± 0.99 % dose/organ | Lung uptake ([4]; 60 min): 0.31 ± 0.04 % dose/organ | Muscle uptake ([4]; 60 min): 4.34 ± 0.91 % dose/organ | Skin uptake ([4]; 60 min): 4.51 ± 1.00 % dose/organ | Spleen uptake ([4]; 60 min): 0.11 ± 0.04 % dose/organ | Thyroid uptake ([4]; 60 min): 0.02 ± 0.007 % dose/organ | Blood uptake ([4]; 120 min): 2.05 ± 0.30 % dose/organ | Brain uptake ([4]; 120 min): 0.05 ± 0.002 % dose/organ | Heart uptake ([4]; 120 min): 0.07 ± 0.003 % dose/organ | Kidney uptake ([4]; 120 min): 0.62 ± 0.11 % dose/organ | Liver uptake ([4]; 120 min): 5.16 ± 1.01 % dose/organ | Lung uptake ([4]; 120 min): 0.18 ± 0.002 % dose/organ | Muscle uptake ([4]; 120 min): 2.14 ± 0.15 % dose/organ | Skin uptake ([4]; 120 min): 5.82 ± 4.37 % dose/organ | Spleen uptake ([4]; 120 min): 0.07 ± 0.009 % dose/organ | Thyroid uptake ([4]; 120 min): 0.02 ± 0.01 % dose/organ | purity on storage [5]: > 95%

COc1ccccc1N1CCN(CCCCN2C(=O)c3ccccc3C2=O)CC1 [NAN-190, 1-(2-methoxyphenyl)-4-[4-(2-phthalimido)butyl]piperazine]
Ki (5-HT1A receptor [1]; 5-HT1A affinity): 0.6 nM | potency for the α1 receptor (α1 receptor): equal potency for the α1 receptor

COc1ccccc1N1CCN(CCN(C(=O)c2ccc(I)cc2)c2ccccn2)CC1 [Compound 1a, 4-(2'-methoxy)phenyl-1-[2'-(N-2"-pyridinyl)-p-iodobenzamido]ethyl piperazine]
HP/CB ratio (5-HT1A receptor [6]; (±)8-OH-DPAT pretreated (2 mg/kg, iv, 5 min prior)): 1.21 | HP/CB ratio (5-HT1A receptor [6]; WAY 100635 pretreated (1 mg/kg, iv, 20 min prior)): 1.07 | HP/CB ratio (5-HT1A receptor [6]; control (no pretreatment)): 3.69 | tissue uptake at 1 h ([2]; hippocampus, 60 minutes after iv injection, ^123 I labeled, read-out: Uptake in hippocampal tissue): 0.13 %ID/g | 5-HT1A related specific uptake (regional distribution pattern in rat brain) (5-HT1A receptor [7]): displayed the 5-HT1A related specific uptake | Ki [8]: 2.6 ± 0.7 nM | selectivity/affinity for serotonin 5-HT1A receptor [9]: unique high affinity and selectivity toward serotonin 5-HT1A sites | Ki [10]: 0.96 ± 0.1 nM | Brain uptake ([4]; 2 min): 1.22 % dose/organ
